Data as given in patent US4452784A, “C-23-Modified derivatives of DMT” (Eli Lilly and Company, priority 1982, dated 1984).
≈ marks a conversion by molar mass, not a printed value. Like-named read-outs stand apart in the source and are kept apart here.

How the values were obtained:
Mycoplasma gallisepticum [1] = experiment: Antimycoplasmal activity of DMT derivatives in chicks; type: in vivo; conditions: for Number with Antibodies/Number Tested: antibodies to M. gallisepticum
Method: In these tests infections were induced in chicks by injecting 0.2 ml. of a broth culture of M. gallisepticum into the abdominal air sac of two- to three-day-old chicks. The compounds were administered subcutaneously at a dose of 60 mg/kg once only on the day of infection or, at the same level, two times on the day of infection and two times on the first day post-infection. Twenty-one days post-infection, the chicks were weighed, a blood sample was taken, and the chicks were sacrificed. The presence or absence of air-sac lesions was recorded.

[2] = system: Haemophilus influenzae R52; experiment: Antibiotic activity, standard agar-dilution assay (MIC); type: cell-based; conditions: H. influenzae R52, ampicillin-resistant strain
Method: (§1) The MIC's in Table III were determined by standard agar-dilution assays. The MIC's in Table IV were obtained using a conventional broth-dilution microtiter test.
(§2) Antibiotic Activity of C-23 Modified Derivatives of DMT^a

Streptococcus Group 9960 = experiment: as above; type: cell-based; conditions: GROUP9960
Method: as §1, §2

[3] = system: Staphylococcus epidermidis EPI1; experiment: as above; type: cell-based; conditions: S. epidermidis EPI1
Method: as §1, §2

[4] = system: Streptococcus Group D X66; experiment: as above; type: cell-based
Method: as §1, §2

[5] = system: Staphylococcus epidermidis EPI2; experiment: as above; type: cell-based; conditions: S. epidermidis EPI2
Method: as §1, §2

[6] = system: Staphylococcus aureus X1.1; experiment: as above; type: cell-based; conditions: S. aureus X1.1
Method: as §1, §2

[7] = system: Staphylococcus aureus S13E; experiment: as above; type: cell-based
Method: as §1, §2

[8] = system: Haemophilus influenzae Holt; experiment: as above; type: cell-based; conditions: H. influenzae Holt, ampicillin-sensitive strain
Method: as §1, §2

[9] = system: Streptococcus pneumoniae Park I; experiment: as above; type: cell-based; conditions: S. pneumoniae Park I
Method: as §1, §2

[10] = system: Streptococcus pyogenes C203; experiment: as above; type: cell-based; conditions: S. pyogenes C203
Method: as §1, §2

[11] = system: Staphylococcus aureus X400; experiment: as above; type: cell-based
Method: as §1, §2

[12] = system: Staphylococcus aureus V41; experiment: as above; type: cell-based; conditions: agar dilution, S. aureus V41, penicillin-resistant strain, read-out: MIC
Method: as §1, §2

[13] = system: Pasteurella multocida 17E; experiment: Antibiotic activity, broth-dilution microtiter test (MIC); type: cell-based; conditions: P. multocida 17E, bovine isolate
Method: as §1
(§3) Antibiotic Activity of DMT Derivatives^a

[14] = system: Pasteurella multocida 60A; experiment: as above; type: cell-based; conditions: P. multocida 60A, avian isolate
Method: as §1, §3

[15] = system: Pasteurella multocida 40G; experiment: as above; type: cell-based; conditions: P. multocida 40G
Method: as §1, §3

[16] = system: Pasteurella hemolytica 41D; experiment: as above; type: cell-based; conditions: P. hemolytica 41D
Method: as §1, §3

Mycoplasma synoviae = experiment: as above; type: cell-based; conditions: Mycoplasmopsis synoviae, M. synoviae
Method: as §1, §3

[17] = system: Pasteurella hemolytica 22C; experiment: as above; type: cell-based
Method: as §1, §3

[18] = system: Pasteurella multocida 68C; experiment: as above; type: cell-based; conditions: P. multocida 68C
Method: as §1, §3

[19] = system: Pasteurella multocida 22A; experiment: as above; type: cell-based; conditions: P. multocida 22A
Method: as §1, §3

Streptococcus bovis 80 = experiment: as above; type: cell-based; conditions: S. bovis 80
Method: as §1, §3

Mycoplasma gallisepticum [20] = experiment: as above; type: cell-based; conditions: Mycoplasmoides gallisepticum, M. gallisepticum
Method: as §1, §3

[21] = system: Pasteurella hemolytica 23C; experiment: as above; type: cell-based; conditions: P. hemolytica 23C
Method: as §1, §3

Mycoplasma hyorhinis = experiment: as above; type: cell-based
Method: as §1, §3

Staphylococcus aureus = experiment: as above; type: cell-based; conditions: S. aureus
Method: as §1, §3

[22] = system: Streptococcus pyogenes C203; experiment: ED50 in mice experimentally infected with S. pyogenes C203; type: in vivo; conditions: doses given 1 and 4 hours postinfection
Method: The C-23 modified derivatives of DMT of this invention have shown in vivo antimicrobial activity against experimentally-induced infections in laboratory animals. When two doses of test compound were administered to mice experimentally infected with S. pyogenes C203, the activity observed was measured as an ED50 value [effective dose in mg/kg to protect 50% of the test animals: see Warren Wick, et al., J. Bacteriol. 81, 233-235 (1961)].
^a mg/kg × 2; doses given 1 and 4 hours postinfection

[23] = subcutaneous 60 mg/kg × 1, 21 days post-infection
[24] = subcutaneous 60 mg/kg × 4, 21 days post-infection

SMILES | MIC [2] | MIC (Streptococcus Group 9960) | MIC [3] | MIC [5] | MIC [6] | MIC [7] | MIC [8] | MIC [9] | MIC [10] | MIC [12] | MIC [13] | MIC [14] | MIC [15] | MIC [16] | MIC (Mycoplasma synoviae) | MIC [18] | MIC [19] | MIC (Streptococcus bovis 80) | MIC (Mycoplasma gallisepticum [20]) | MIC [21] | further results
CCC1OC(=O)CC(O)C(C)C(OC2OC(C)C(OC3CC(C)(O)C(O)C(C)O3)C(N(C)C)C2O)C(CC=O)CC(C)C(=O)C=CC(C)=CC1CN=[N+]=[N-] (stereo not drawn) [Compound 1, 23-Deoxy-23-Azido-DMT] | 8 µg/mL (≈ 10.4 µM) | 0.25 µg/mL (≈ 0.326 µM) | 0.25 µg/mL (≈ 0.326 µM) | 0.25 µg/mL (≈ 0.326 µM) | 0.25 µg/mL (≈ 0.326 µM) | 0.25 µg/mL (≈ 0.326 µM) | 8 µg/mL (≈ 10.4 µM) | 0.06 µg/mL (≈ 0.0782 µM) | 0.125 µg/mL (≈ 0.163 µM) | 0.25 µg/mL (≈ 0.326 µM) | 6.25 µg/mL (≈ 8.15 µM) | 6.25 µg/mL (≈ 8.15 µM) | 6.25 µg/mL (≈ 8.15 µM) | 25 µg/mL (≈ 32.6 µM) | 0.78 µg/mL (≈ 1.02 µM) | 6.25 µg/mL (≈ 8.15 µM) | 12.5 µg/mL (≈ 16.3 µM) | 0.39 µg/mL (≈ 0.509 µM) | 0.19 µg/mL (≈ 0.248 µM) | 25 µg/mL (≈ 32.6 µM) | Number with Antibodies/Number Tested (Mycoplasma gallisepticum [1]; [23]): 5/10; Number with Antibodies/Number Tested (Mycoplasma gallisepticum [1]; [24]): 0/10; Mortality (Mycoplasma gallisepticum [1]; [23]): 0/10; Number with Air-Sac Lesions/Number Treated (Mycoplasma gallisepticum [1]; [23]): 3/10; Mortality (Mycoplasma gallisepticum [1]; [24]): 0/10; Number with Air-Sac Lesions/Number Treated (Mycoplasma gallisepticum [1]; [24]): 0/10; MIC [4]: 0.5 µg/mL (≈ 0.652 µM); MIC ([11]; X400): 0.5 µg/mL (≈ 0.652 µM); MIC ([17]; 22C): 25 µg/mL (≈ 32.6 µM); MIC (Mycoplasma hyorhinis): > 50 µg/mL; MIC (Staphylococcus aureus): 1.56 µg/mL (≈ 2.03 µM); ED50 ([22]; C203, oral): 68 mg/kg; ED50 ([22]; C203, sc, subcutaneous): 10.5 mg/kg
CCC1OC(=O)CC(O)C(C)C(OC2OC(C)C(OC3CC(C)(O)C(O)C(C)O3)C(N(C)C)C2O)C(CC=O)CC(C)C(=O)C=CC(C)=CC1CN (stereo not drawn) [Compound 2, 23-Deoxy-23-amino-DMT] | 16 µg/mL (≈ 21.6 µM) | 8 µg/mL (≈ 10.8 µM) | 4 µg/mL (≈ 5.4 µM) | 8 µg/mL (≈ 10.8 µM) | 2 µg/mL (≈ 2.7 µM) | 4 µg/mL (≈ 5.4 µM) | 16 µg/mL (≈ 21.6 µM) | 0.5 µg/mL (≈ 0.675 µM) | 1 µg/mL (≈ 1.35 µM) | 8 µg/mL (≈ 10.8 µM) | 6.25 µg/mL (≈ 8.44 µM) | 12.5 µg/mL (≈ 16.9 µM) | 12.5 µg/mL (≈ 16.9 µM) | 12.5 µg/mL (≈ 16.9 µM) | 0.78 µg/mL (≈ 1.05 µM) | 12.5 µg/mL (≈ 16.9 µM) | 12.5 µg/mL (≈ 16.9 µM) | 1.56 µg/mL (≈ 2.11 µM) | 1.56 µg/mL (≈ 2.11 µM) | 12.5 µg/mL (≈ 16.9 µM) | MIC ([4]; agar dilution, Streptococcus Group D X66, read-out: MIC): 8 µg/mL (≈ 10.8 µM); MIC ([11]; agar dilution, S. aureus X400, methicillin-resistant strain, read-out: MIC): 8 µg/mL (≈ 10.8 µM); MIC ([17]; broth-dilution microtiter, P. hemolytica 22C, read-out: MIC): 25 µg/mL (≈ 33.7 µM); MIC (Mycoplasma hyorhinis; broth-dilution microtiter, M. hyorhinis, read-out: MIC): 25 µg/mL (≈ 33.7 µM); MIC (Staphylococcus aureus): 6.25 µg/mL (≈ 8.44 µM); ED50 ([22]; C203, oral): > 100 mg/kg; ED50 ([22]; C203, sc, subcutaneous): < 1.5 mg/kg
